Source: ChEMBL document CHEMBL3124779, “Discovery of ABT-267, a pan-genotypic inhibitor of HCV NS5A” (J Med Chem, 2014)
Values after ≈ are worked out from the molar mass of the structure shown.

Tests used:
[1] = Half life in rat at 3 mg/kg, iv; assay type: ADME, organism-based; set-up: dose 3 mg/kg, route intravenous; settings: in vivo
[2] = test system: Hepatitis C virus; experiment: Antiviral activity against HCV1b harboring NS5A L31F mutant infected in human HuH7 cells assessed as inhibition of viral replication after 4 days by luciferase reporter gene assay; assay type: functional, Hepacivirus hominis, genotype 1b, Huh-7
[3] = test system: Hepatitis C virus; experiment: Antiviral activity against HCV1a harboring NS5A Y93N mutant infected in human HuH7 cells assessed as inhibition of viral replication after 4 days by luciferase reporter gene assay; assay type: functional, Hepacivirus hominis, subtype 1a, Huh-7
[4] = Cmax in HCV1 infected patient at 5 to 200 mg qd for 3 days; assay type: ADME, organism-based; settings: human, in vivo
[5] = test system: Hepatitis C virus; experiment: Resistant ratio of EC50 for wild type HCV1a to EC50 for HCV1a harboring NS5A Y93N mutant infected in human HuH7 cells; assay type: functional, Hepacivirus hominis, subtype 1a, Huh-7
[6] = Cmax in dog at 2.5 mg/kg, po; assay type: ADME, organism-based, Canis lupus familiaris; set-up: dose 2.5 mg/kg, route oral; settings: in vivo
[7] = test system: Hepatitis C virus; experiment: Resistant ratio of EC50 for wild type HCV1b to EC50 for HCV1b harboring NS5A L28T mutant infected in human HuH7 cells; assay type: functional, Hepacivirus hominis, genotype 1b, Huh-7
[8] = Half life in monkey at 2.5 mg/kg, po; assay type: ADME, organism-based, Macaca mulatta; set-up: dose 2.5 mg/kg, route oral; settings: rhesus monkey, in vivo
[9] = Cmax in rat at 3 mg/kg, po; assay type: ADME, organism-based; set-up: dose 3 mg/kg, route oral; settings: in vivo
[10] = Kinetic solubility of the compound in 10 mM of phosphate buffer at pH 7.2 by CLND method; assay type: physicochemical; settings: read-out: Kinetic_solubility
[11] = Clearance in dog at 1 mg/kg, iv; assay type: ADME, organism-based, Canis lupus familiaris; set-up: dose 1 mg/kg, route intravenous; settings: in vivo
[12] = AUC in dog at 2.5 mg/kg, po; assay type: ADME, organism-based, Canis lupus familiaris; set-up: dose 2.5 mg/kg, route oral; settings: plasma
[13] = test system: Hepatitis C virus; experiment: Antiviral activity against HCV1b harboring NS5A L28M and Y93H mutant infected in human HuH7 cells assessed as inhibition of viral replication after 4 days by luciferase reporter gene assay; assay type: functional, Hepacivirus hominis, genotype 1b, Huh-7
[14] = Oral bioavailability in monkey at 2.5 mg/kg; assay type: ADME, organism-based, Macaca mulatta; settings: rhesus monkey, in vivo
[15] = test system: Hepatitis C virus; experiment: Antiviral activity in HCV1 infected in human assessed as log reduction of viral RNA at 5 to 200 mg qd for 3 days relative to control; assay type: functional, Hepacivirus hominis, genotype 1
[16] = Oral bioavailability in dog at 2.5 mg/kg; assay type: ADME, organism-based, Canis lupus familiaris; settings: in vivo
[17] = organism: Homo sapiens; experiment: Toxicity in HCV1 infected patient assessed as mortality at 5 to 200 mg qd for 3 days; assay type: organism-based; settings: in vivo, 72 h
[18] = Volume of distribution at steady state in rat at 3 mg/kg, iv; assay type: ADME, organism-based; set-up: dose 3 mg/kg, route intravenous; settings: in vivo, read-out: Vdss
[19] = Metabolic stability in rat liver microsomes assessed as compound remaining after 30 mins; assay type: ADME; settings: read-out: Stability
[20] = test system: Hepatitis C virus; experiment: Antiviral activity against HCV1b harboring NS5A L28T mutant infected in human HuH7 cells assessed as inhibition of viral replication after 4 days by luciferase reporter gene assay; assay type: functional, Hepacivirus hominis, genotype 1b, Huh-7
[21] = test system: Hepatitis C virus; experiment: Antiviral activity against HCV1a harboring NS5A M28T mutant infected in human HuH7 cells assessed as inhibition of viral replication after 4 days by luciferase reporter gene assay; assay type: functional, Hepacivirus hominis, subtype 1a, Huh-7
[22] = test system: Hepatitis C virus; experiment: Antiviral activity against HCV1a H77 infected in human HuH7 cells assessed as inhibition of viral replication after 4 days by luciferase reporter gene assay; assay type: functional, organism-based, Hepacivirus hominis; settings: genotype 1a H77, Huh-7, 96 h
[23] = test system: Hepatitis C virus; experiment: Antiviral activity against HCV1a harboring NS5A Q30R mutant infected in human HuH7 cells assessed as inhibition of viral replication after 4 days by luciferase reporter gene assay; assay type: functional, Hepacivirus hominis, subtype 1a, Huh-7
[24] = Clearance in rat at 3 mg/kg, iv; assay type: ADME, organism-based; set-up: dose 3 mg/kg, route intravenous; settings: in vivo
[25] = Tmax in monkey at 2.5 mg/kg, po; assay type: ADME, organism-based, Macaca mulatta; set-up: dose 2.5 mg/kg, route oral; settings: rhesus monkey, in vivo
[26] = test system: Hepatitis C virus; experiment: Antiviral activity against HCV1b harboring NS5A L31V and Y93H mutant infected in human HuH7 cells assessed as inhibition of viral replication after 4 days by luciferase reporter gene assay; assay type: functional, Hepacivirus hominis, genotype 1b, Huh-7
[27] = test system: Hepatitis C virus; experiment: Resistant ratio of EC50 for wild type HCV1b to EC50 for HCV1b harboring NS5A L31V mutant infected in human HuH7 cells; assay type: functional, Hepacivirus hominis, genotype 1b, Huh-7
[28] = test system: Hepatitis C virus; experiment: Resistant ratio of EC50 for wild type HCV1b to EC50 for HCV1b harboring NS5A Y93H mutant infected in human HuH7 cells; assay type: functional, Hepacivirus hominis, genotype 1b, Huh-7
[29] = test system: Hepatitis C virus; experiment: Antiviral activity against HCV3a infected in human HuH7 cells assessed as inhibition of viral replication after 4 days by luciferase reporter gene assay; assay type: functional, organism-based, Hepacivirus hominis; settings: genotype 3a, Huh-7, 96 h
[30] = test system: Hepatitis C virus; experiment: Resistant ratio of EC50 for wild type HCV1a to EC50 for HCV1a harboring NS5A M28T mutant infected in human HuH7 cells; assay type: functional, Hepacivirus hominis, subtype 1a, Huh-7
[31] = test system: Hepatitis C virus; experiment: Resistant ratio of EC50 for wild type HCV1a to EC50 for HCV1a harboring NS5A Q30R mutant infected in human HuH7 cells; assay type: functional, Hepacivirus hominis, subtype 1a, Huh-7
[32] = Half life in monkey at 1 mg/kg, iv; assay type: ADME, organism-based, Macaca mulatta; set-up: dose 1 mg/kg, route intravenous; settings: rhesus monkey, in vivo
[33] = test system: Hepatitis C virus; experiment: Antiviral activity against HCV1b harboring NS5A L31F and Y93H mutant infected in human HuH7 cells assessed as inhibition of viral replication after 4 days by luciferase reporter gene assay; assay type: functional, Hepacivirus hominis, genotype 1b, Huh-7
[34] = Half life in rat at 3 mg/kg, po; assay type: ADME, organism-based; set-up: dose 3 mg/kg, route oral; settings: in vivo
[35] = test system: Hepatitis C virus; experiment: Antiviral activity against HCV1b harboring NS5A R30Q and Y93H mutant infected in human HuH7 cells assessed as inhibition of viral replication after 4 days by luciferase reporter gene assay; assay type: functional, Hepacivirus hominis, genotype 1b, Huh-7
[36] = test system: Hepatitis C virus; experiment: Resistant ratio of EC50 for wild type HCV1a to EC50 for HCV1a harboring NS5A M28V mutant infected in human HuH7 cells; assay type: functional, Hepacivirus hominis, subtype 1a, Huh-7
[37] = test system: Hepatitis C virus; experiment: Antiviral activity against HCV1b Con1 infected in human HuH7 cells assessed as inhibition of viral replication after 4 days by luciferase reporter gene assay in presence of 40% human plasma; assay type: functional, organism-based, Hepacivirus hominis; settings: isolate Con1, Huh-7, Plasma, 96 h
[38] = Half life in dog at 2.5 mg/kg, po; assay type: ADME, organism-based, Canis lupus familiaris; set-up: dose 2.5 mg/kg, route oral; settings: in vivo
[39] = AUC in monkey at 2.5 mg/kg, po; assay type: ADME, organism-based, Macaca mulatta; set-up: dose 2.5 mg/kg, route oral; settings: rhesus monkey, plasma
[40] = test system: Hepatitis C virus; experiment: Antiviral activity against HCV1b harboring NS5A L31V mutant infected in human HuH7 cells assessed as inhibition of viral replication after 4 days by luciferase reporter gene assay; assay type: functional, Hepacivirus hominis, genotype 1b, Huh-7
[41] = test system: Hepatitis C virus; experiment: Antiviral activity against HCV5a infected in human HuH7 cells assessed as inhibition of viral replication after 4 days by luciferase reporter gene assay; assay type: functional, organism-based, Hepacivirus hominis; settings: genotype 5a, Huh-7, 96 h
[42] = test system: Hepatitis C virus; experiment: Resistant ratio of EC50 for wild type HCV1a to EC50 for HCV1a harboring NS5A H58D mutant infected in human HuH7 cells; assay type: functional, Hepacivirus hominis, subtype 1a, Huh-7
[43] = test system: Hepatitis C virus; experiment: Resistant ratio of EC50 for wild type HCV1b to EC50 for HCV1b harboring NS5A L31V and Y93H mutant infected in human HuH7 cells; assay type: functional, Hepacivirus hominis, genotype 1b, Huh-7
[44] = Metabolic stability in human liver microsomes assessed as compound remaining after 30 mins; assay type: ADME; settings: read-out: Stability
[45] = Tmax in rat at 3 mg/kg, po; assay type: ADME, organism-based; set-up: dose 3 mg/kg, route oral; settings: in vivo
[46] = test system: Hepatitis C virus; experiment: Antiviral activity against HCV1a harboring NS5A Y93C mutant infected in human HuH7 cells assessed as inhibition of viral replication after 4 days by luciferase reporter gene assay; assay type: functional, Hepacivirus hominis, subtype 1a, Huh-7
[47] = test system: Hepatitis C virus; experiment: Antiviral activity against HCV1a harboring NS5A H58D mutant infected in human HuH7 cells assessed as inhibition of viral replication after 4 days by luciferase reporter gene assay; assay type: functional, Hepacivirus hominis, subtype 1a, Huh-7
[48] = Volume of distribution at steady state in dog at 1 mg/kg, iv; assay type: ADME, organism-based, Canis lupus familiaris; set-up: dose 1 mg/kg, route intravenous; settings: in vivo, read-out: Vdss

In the case of `COC(=O)N[C@H](C(=O)N1CCC[C@H]1C(=O)Nc1ccc([C@@H]2CC[C@@H](c3ccc(NC(=O)[C@@H]4CCCN4C(=O)[C@@H](NC(=O)OC)C(C)C)cc3)N2c2ccc(C(C)(C)C)cc2)cc1)C(C)C` [OMBITASVIR], the half-life [1] is reported as 9.9 h, the Efficacy [2] is reported as 127% and the Efficacy [3] is reported as 25%. The Cmax [4] was 5.7 ng/mL, the “Ratio EC50” value [5] was 66739 and the Cmax [6] was 640 ng/mL. The “Ratio EC50” value [7] was 661, the half-life [8] was 5 h and the Cmax [9] was 10 ng/mL. For the same molecule, the solubility kinetic [10] was 2.7 µM (≈ 2.41 µg/mL), the clearance [11] was 0.18 L/h/kg and the AUC [12] was 8 µg·h/mL. The Efficacy [13] was 104%, the bioavailability [14] was 35% and the Activity [15] was “<=3.1 log10IU/ml”. For the same molecule, the bioavailability [16] was 57%, the Activity [17] was “Non-toxic” and the Vd [18] was 5.9 L/kg. For the same molecule, the remaining at 0.5 h [19] was 73%, the Efficacy [20] was 17% and the Efficacy [21] was 100%. It also gave an EC50 [22] of 0.014 nM, an Efficacy [23] of 60% and a clearance [24] of 0.65 L/h/kg. The Tmax [25] was 3.3 h, the Efficacy [26] was 24% and the “Ratio EC50” value [27] was 8. For the same molecule, the “Ratio EC50” value [28] was 77, the EC50 [29] was 0.0193 nM and the “Ratio EC50” value [30] was 8965. For the same molecule, the “Ratio EC50” value [31] was 800, the half-life [32] was 4.4 h and the Efficacy [33] was 35%. The half-life [34] was 15.9 h, the Efficacy [35] was 60% and the “Ratio EC50” value [36] was 58. The EC50 [37] was 0.056 nM, the half-life [38] was 7.3 h and the AUC [39] was 2.4 µg·h/mL. For the same molecule, the Efficacy [40] was 86%, the EC50 [41] was 0.0043 nM and the “Ratio EC50” value [42] was 243. The “Ratio EC50” value [43] was 12323, the remaining at 0.5 h [44] was 60% and the Tmax [45] was 3.7 h. It also gave an Efficacy [46] of 24%, an Efficacy [47] of 66% and a Vd [48] of 1.8 L/kg.
